Several values for one entry are separate records, joined by “and”; a condition that tells them apart may be missing. Identical values can stand only once. Like-named read-outs stand apart in the source and are kept apart here.
Biological target: T1, human FXR (NR1H4) (Homo sapiens, UniProt Q96RI1)
T1 sequence (Q96RI1 1-486): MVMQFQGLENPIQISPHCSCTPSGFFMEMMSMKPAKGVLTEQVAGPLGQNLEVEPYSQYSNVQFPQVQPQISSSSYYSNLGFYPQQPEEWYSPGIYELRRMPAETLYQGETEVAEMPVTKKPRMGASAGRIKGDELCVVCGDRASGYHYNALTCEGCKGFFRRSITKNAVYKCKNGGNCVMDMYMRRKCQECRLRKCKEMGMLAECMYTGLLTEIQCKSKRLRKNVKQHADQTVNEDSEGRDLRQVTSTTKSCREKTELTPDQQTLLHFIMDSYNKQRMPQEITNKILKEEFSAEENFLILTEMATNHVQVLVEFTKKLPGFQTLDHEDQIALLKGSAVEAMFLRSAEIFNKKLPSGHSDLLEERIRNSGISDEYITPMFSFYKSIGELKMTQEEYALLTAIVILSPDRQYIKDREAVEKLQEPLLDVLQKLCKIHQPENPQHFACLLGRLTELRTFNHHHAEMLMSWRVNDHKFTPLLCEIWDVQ
Assay: Human FXR (NR1H4) Assay: Gal4 promoter driven luciferase reporter transactivation in CHO cells (Indigo Bioscience kit IB00601)
Assay type: cell-based
Settings: for Emax: CHO, read-out: Efficacy (%); for EC50: Human FXR (NR1H4) reporter assay in CHO cells
Description: Human FXR (NR1H4) Assay Determination of a ligand mediated Gal4 promoter driven transactivation to quantify ligand binding mediated activation of FXR. FXR Reporter Assay kit purchased from Indigo Bioscience (Catalogue number: IB00601) to determine the potency and efficacy of compounds that can induce FXR activation. The principle application of this reporter assay system is to quantify functional activity of human FXR. The assay utilizes non-human mammalian cells, CHO (Chinese hamster ovary) cells engineered to express human NR1H4 protein (referred to as FXR). Reporter cells also incorporate the cDNA encoding beetle luciferase which catalyzes the substrates and yields photon emission. Luminescence intensity of the reaction is quantified using a plate-reading luminometer, Envision. Reporter Cells include the luciferase reporter gene functionally linked to an FXR responsive promoter. Thus, quantifying changes in luciferase expression in the treated reporter cells provides a sensitive surrogate measure of the changes in FXR activity. […] The assay is according to the manufacturer's instructions. […] Retrieve Reporter Cells from −80° C. storage. Perform a rapid thaw of the frozen cells by transferring a 10 ml volume of 37° C. cell recovery medium into the tube of frozen cells. […] Retrieve the tube of Reporter Cell Suspension from the water bath. […] Dispense 90 μl of cell suspension into each well of the 96-well Assay Plate. Transfer the plate into 37° C. incubator, allowing the cells adherent to the bottom of the well. Dilute compounds in Dilution Plate (DP), and administrate to cells at Assay Plate (AP). […] Cells were incubated for additional 22 hours before luciferase activities were measured. Thirty minutes before intending to quantify FXR activity, remove Detection Substrate and Detection Buffer from the refrigerator and place them in a low-light area so that they may equilibrate to room temperature. Remove the plate's lid and discard all media contents by ejecting it into an appropriate waste container. Gently tap the inverted plate onto a clean absorbent paper towel to remove residual droplets. Cells will remain tightly adhered to well bottoms. Add 100 μl of luciferase detection reagent to each well of the assay plate. Allow the assay plate to rest at room temperature for at least 5 minutes following the addition of LDR. Set the instrument (Envision) to perform a single 5 second “plate shake” prior to reading the first assay well. Read time may be 0.5 second (500 mSec) per well.

[1] = efficacy normalized to CDCA set as 100%

Compound | Emax [1] | EC50 (potency range, read-out: EC50) | Emax | EC50 (EC50, potency range)
COC(=O)c1ccc(F)c(NC(=O)N2C3CCC2CC(OCc2c(-c4ccccc4OC(F)(F)F)noc2C2CC2)C3)c1 (centres unmarked) [Example 747] | 145% | 100 to 1000 nM | – | –
COc1ccc(C(=O)O)cc1NC(=O)N1C2CCC1CC(OCc1c(-c3ccccc3OC(F)(F)F)noc1C1CC1)C2 (centres unmarked) [Example 750] | 76% | 100 to 1000 nM | – | –
O=C(O)c1cccc(NC(=O)N2C3CCC2CC(OCc2c(-c4ccccc4OC(F)(F)F)noc2C2CC2)C3)n1 (centres unmarked) [Example 771] | 54% | > 1000 nM | – | –
CC(C)Oc1cc(C(=O)O)ccc1NC(=O)N1C2CCC1CC(OCc1c(-c3c(Cl)cccc3Cl)noc1C1CC1)C2 (centres unmarked) [Example 721] | 133% | 10 to 100 nM | – | –
COC(=O)c1ccc(NC(=O)N2C3CCC2CC(OCc2c(-c4c(Cl)cccc4Cl)noc2C2CC2)C3)cc1F (centres unmarked) [Example 196] | – | < 10 nM | – | –
Cn1cc(-c2cc(NC(=O)N3C4CCC3CC(OCc3c(-c5c(Cl)cccc5Cl)noc3C3CC3)C4)ccc2C(=O)O)cn1 (centres unmarked) [Example 776] | 11% | 100 to 1000 nM | – | –
O=C(O)c1ccc(NC(=O)N2C3CCC2CC(OCc2c(-c4c(F)cccc4F)noc2C2CC2)C3)cc1-c1ccccc1 (centres unmarked) [Example 816] | 36% | 10 to 100 nM | – | –
CCOc1cc(C(=O)O)ccc1NC(=O)N1C2CCC1CC(OCc1c(-c3c(F)cccc3F)noc1C1CC1)C2 (centres unmarked) [Example 810] | 64% | 10 to 100 nM | – | –
COC(=O)c1cc(NC(=O)N2C3CCC2CC(OCc2c(-c4c(Cl)cccc4Cl)noc2C2CC2)C3)cc(-c2cccnc2)c1 (centres unmarked) [Example 726] | 81% | < 10 nM | – | –
O=C(O)c1ccc2c(c1)N(C(=O)N1C3CCC1CC(OCc1c(-c4ccccc4OC(F)(F)F)noc1C1CC1)C3)CCC2 (centres unmarked) [Example 596] | – | > 1000 nM | 48% | –
O=C(O)c1c(F)cc(NC(=O)N2C3CCC2CC(OCc2c(-c4c(Cl)cccc4Cl)noc2C2CC2)C3)cc1F (centres unmarked) [Example 199] | – | 100 to 1000 nM | – | –
COC(=O)c1ccc(NC(=O)N2C3CCC2CC(OCc2c(-c4c(Cl)cccc4Cl)noc2C2CC2)C3)nc1 (centres unmarked) [Example 786] | 44% | 10 to 100 nM | – | –
O=C(O)c1ccc(F)c(NC(=O)N2C3CCC2CC(OCc2c(-c4c(Cl)cccc4Cl)noc2C2CC2)C3)c1 (centres unmarked) [Example 723] | 140% | 100 to 1000 nM | – | –
CCOC(=O)c1ccnc(NC(=O)N2C3CCC2CC(OCc2c(-c4ccccc4OC(F)(F)F)noc2C2CC2)C3)c1 (centres unmarked) [Example 765] | 272% | 10 to 100 nM | – | –
COC(=O)c1ccc(NC(=O)N2C3CCC2CC(OCc2c(-c4c(Cl)cccc4Cl)noc2C2CC2)C3)cc1-c1ccc(C(F)(F)F)nc1 (centres unmarked) [Example 796] | 95% | < 10 nM | – | –
O=C(c1cccc(NC(=O)N2C3CCC2CC(OCc2c(-c4c(Cl)cccc4Cl)noc2C2CC2)C3)c1)N1CCOCC1 (centres unmarked) [Example 214] | – | 10 to 100 nM | – | –
O=C(O)c1ccc2nc(NC(=O)N3C4CCC3CC(OCc3c(-c5c(Cl)cccc5Cl)noc3C3CC3)C4)sc2c1 (centres unmarked) [Example 805] | 104% | 10 to 100 nM | – | –
O=C(NCCS(=O)(=O)O)c1ccc(NC(=O)N2C3CCC2CC(OCc2c(-c4c(Cl)cccc4Cl)noc2C2CC2)C3)c(F)c1 (centres unmarked) [Example 780] | 0% | 100 to 1000 nM | – | –
O=C(O)c1ccc(NC(=O)N2C3CCC2CC(OCc2c(-c4c(Cl)cccc4Cl)noc2C2CC2)C3)cc1-c1ccccc1 (centres unmarked) [Example 201] | – | < 10 nM | – | –
CCOC(=O)c1cccc(NC(=O)N2C3CCC2CC(OCc2c(-c4ccccc4OC(F)(F)F)noc2C2CC2)C3)n1 (centres unmarked) [Example 766] | 192% | > 1000 nM | – | –
COC(=O)c1ccc(NC(=O)N2C3CCC2CC(OCc2c(-c4c(Cl)cccc4Cl)noc2C2CC2)C3)c(OC)c1 (centres unmarked) [Example 190] | – | 10 to 100 nM | – | –
CC(=O)N1CCC(c2cccc(NC(=O)N3C4CCC3CC(OCc3c(-c5c(Cl)cccc5Cl)noc3C3CC3)C4)c2)CC1 (centres unmarked) [Example 714] | 156% | 10 to 100 nM | – | –
CCOC(=O)c1cnc2ccc(NC(=O)N3C4CCC3CC(OCc3c(-c5c(Cl)cccc5Cl)noc3C3CC3)C4)cc2c1 (centres unmarked) [Example 775] | 82% | < 10 nM | – | –

Compound | Emax [1] | EC50 (potency range, read-out: EC50) | Emax | EC50 (EC50, potency range)
O=C(Nc1cc(F)cc(F)c1)N1C2CCC1CC(OCc1c(-c3c(Cl)cccc3Cl)noc1C1CC1)C2 (centres unmarked) [Example 700] | 292% | < 10 nM | – | –
CC1(S(=O)(=O)NC(=O)c2ccc(NC(=O)N3C4CCC3CC(OCc3c(-c5c(Cl)cccc5Cl)noc3C3CC3)C4)c(F)c2)CC1 (centres unmarked) [Example 693] | 203% | 100 to 1000 nM | – | –
O=C(O)c1cc(NC(=O)N2C3CCC2CC(OCc2c(-c4c(Cl)cccc4Cl)noc2C2CC2)C3)cc(-c2cccnc2)c1 (centres unmarked) [Example 727] | – | 10 to 100 nM and < 10 nM | – | –
O=C(O)c1ccc(NC(=O)N2C3CCC2CC(OCc2c(-c4ccccc4C(F)(F)F)noc2C2CC2)C3)c(C(F)(F)F)c1 (centres unmarked) [Example 817] | 20% | 10 to 100 nM | – | –
COC(=O)c1ccc(NC(=O)N2C3CCC2CC(OCc2c(-c4ccccc4OC(F)(F)F)noc2C2CC2)C3)cc1OC(F)(F)F (centres unmarked) [Example 821] | 75% | 10 to 100 nM | – | –
COC(=O)c1ccc(NC(=O)N2C3CCC2CC(OCc2c(-c4c(Cl)cccc4Cl)noc2C2CC2)C3)c(C(F)(F)F)c1 (centres unmarked) [Example 709] | 119% | 100 to 1000 nM | – | –
O=C(Nc1ccc(C(F)(F)F)cc1)N1C2CCC1CC(OCc1c(-c3c(Cl)cccc3Cl)noc1C1CC1)C2 (centres unmarked) [Example 8] | – | 100 to 1000 nM | – | –
O=C(O)c1ccc(NC(=O)N2C3CCC2CC(OCc2c(C4CCC5(CC4)CC5)noc2C2CC2)C3)c(C(F)(F)F)c1 (centres unmarked) [Example 819] | 11% | 10 to 100 nM | – | –
O=C(O)c1ccc(NC(=O)N2C3CCC2CC(OCc2c(-c4ccccc4OC(F)(F)F)noc2C2CC2)C3)nc1 (centres unmarked) [Example 769] | 132% | 100 to 1000 nM | – | –
O=C(O)c1ccc(NC(=O)N2C3CCC2CC(OCc2c(-c4c(Cl)cccc4Cl)noc2C2CC2)C3)c(F)c1 (centres unmarked) [Example 692] | 156% | < 10 nM | – | –
CC(C)(C)c1ccc(C(=O)NC(=O)N2C3CCC2CC(OCc2c(-c4c(Cl)cccc4Cl)noc2C2CC2)C3)cc1 (centres unmarked) [Example 806] | 5% | 10 to 100 nM | – | –
O=C(Nc1cccc(-c2nccs2)c1)N1C2CCC1CC(OCc1c(-c3c(Cl)cccc3Cl)noc1C1CC1)C2 (centres unmarked) [Example 737] | 179% | < 10 nM | – | –
O=C(O)c1cnc2ccc(NC(=O)N3C4CCC3CC(OCc3c(-c5c(Cl)cccc5Cl)noc3C3CC3)C4)cc2c1 (centres unmarked) [Example 211] | – | 100 to 1000 nM | – | –
COC(=O)c1cccc(F)c1NC(=O)N1C2CCC1CC(OCc1c(-c3ccccc3OC(F)(F)F)noc1C1CC1)C2 (centres unmarked) [Example 763] | 211% | 100 to 1000 nM | – | –
O=C(Nc1cccc(F)c1)N1C2CCC1CC(OCc1c(-c3c(Cl)cccc3Cl)noc1C1CC1)C2 (centres unmarked) [Example 1] | – | < 10 nM | – | –
CCOC(=O)c1ccc(NC(=O)N2C3CCC2CC(NCc2c(-c4c(Cl)cccc4Cl)noc2C2CC2)C3)cc1 (centres unmarked) [Example 825] | 104% | 10 to 100 nM | – | –
O=C(Nc1ccc(C(F)F)cc1)N1C2CCC1CC(OCc1c(-c3c(Cl)cccc3Cl)noc1C1CC1)C2 (centres unmarked) [Example 189] | – | 10 to 100 nM | – | –
CN(C)S(=O)(=O)NC(=O)c1cccc(NC(=O)N2C3CCC2CC(OCc2c(-c4c(Cl)cccc4Cl)noc2C2CC2)C3)c1 (centres unmarked) [Example 219] | – | 100 to 1000 nM | – | –
O=C(O)c1cccc(NC(=O)N2C3CCC2CC(NCc2c(-c4c(Cl)cccc4Cl)noc2C2CC2)C3)c1 (centres unmarked) [Example 828] | 59% | 10 to 100 nM | – | –
O=C(Nc1cccc(-c2ccccc2)c1)N1C2CCC1CC(NCc1c(-c3c(Cl)cccc3Cl)noc1C1CC1)C2 (centres unmarked) [Example 773] | – | – | 135% | 10 to 100 nM
O=C(O)c1ccc(NC(=O)N2C3CCC2CC(OCc2c(C4CCC5(CC4)CC5)noc2C2CC2)C3)cc1-c1ccccc1 (centres unmarked) [Example 293] | – | 10 to 100 nM | – | –
COC(=O)c1ccc(NC(=O)N2C3CCC2CC(OCc2c(-c4c(Cl)cccc4Cl)noc2C2CC2)C3)cc1-c1ccccc1 (centres unmarked) [Example 200] | – | < 10 nM | – | –

From patent US10597391B2, “Urea-containing isoxazole derivatives as FXR agonists and methods of use thereof” (Enanta Pharmaceuticals, Inc., priority 2016, dated 2020)
